Among the data in ChEMBL document CHEMBL3763073 (Eur J Med Chem, 2016) are Ki, EC50 and IC50 values, retold here.

Assay [1] deals with T1, Oxytocin receptor (Homo sapiens, UniProt P30559).
T1 sequence (P30559 whole entry): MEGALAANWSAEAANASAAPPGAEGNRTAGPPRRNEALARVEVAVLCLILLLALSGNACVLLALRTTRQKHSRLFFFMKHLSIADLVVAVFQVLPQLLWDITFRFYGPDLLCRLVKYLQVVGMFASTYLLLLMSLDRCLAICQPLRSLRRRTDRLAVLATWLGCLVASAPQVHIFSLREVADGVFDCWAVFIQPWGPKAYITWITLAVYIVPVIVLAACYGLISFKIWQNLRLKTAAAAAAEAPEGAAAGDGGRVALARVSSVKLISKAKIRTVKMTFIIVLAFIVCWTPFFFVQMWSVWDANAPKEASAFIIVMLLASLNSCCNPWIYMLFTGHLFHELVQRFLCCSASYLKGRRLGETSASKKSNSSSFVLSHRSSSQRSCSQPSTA
Nature of the assay: Displacement of [3H]-oxytocin from human oxytocin receptor expressed in HEK293 cells after 90 mins by microbeta 2 microplate reader analysis. It is filed as cell-based. Background: Displacement assays read how much labelled ligand stays bound in the presence of the test substance.

In assay [2] the target is T1, Oxytocin receptor. Description: Agonist activity at human oxytocin receptor expressed in HEK293 cells assessed as increase in IP1 accumulation preincubated for 1 hr followed by addition of Ab-Cryptate and IP1-d2 by HTRF assay. Format: functional, cell-based.
Assay [3] deals with T1, Oxytocin receptor. Nature of the assay: Antagonist activity at human oxytocin receptor expressed in HEK293 cells assessed as inhibition of oxytocin induced IP1 accumulation pretreated for 30 mins measured 1 hr post Ab-Cryptate and IP1-d2 addition by HTRF assay. It is filed as functional, cell-based.
Assay [4] concerns the target T2, Vasopressin V1a receptor (Homo sapiens, UniProt P37288). Description: Displacement of [3H]-vasopressin from human vasopressin 1a receptor expressed in HEK293 cells after 90 mins by microbeta 2 microplate-reader method. Format: cell-based.
Assay [5] concerns the target T2, Vasopressin V1a receptor. Description: Agonist activity at human vasopressin 1a receptor expressed in HEK293 cells assessed as increase in IP1 accumulation preincubated for 1 hr followed by addition of Ab-Cryptate and IP1-d2 by HTRF assay. Format: functional, cell-based. On the technique in general: Time-resolved FRET reads energy transfer from a long-lived donor to a nearby acceptor.

The target of assay [6] is T2, Vasopressin V1a receptor. Description: Antagonist activity at human vasopressin 1a receptor expressed in HEK293 cells assessed as inhibition of vasopressin induced IP1 accumulation pretreated for 30 mins measured 1 hr post Ab-Cryptate and IP1-d2 addition by HTRF assay. Format: functional, cell-based.

T2 sequence (P37288 whole entry): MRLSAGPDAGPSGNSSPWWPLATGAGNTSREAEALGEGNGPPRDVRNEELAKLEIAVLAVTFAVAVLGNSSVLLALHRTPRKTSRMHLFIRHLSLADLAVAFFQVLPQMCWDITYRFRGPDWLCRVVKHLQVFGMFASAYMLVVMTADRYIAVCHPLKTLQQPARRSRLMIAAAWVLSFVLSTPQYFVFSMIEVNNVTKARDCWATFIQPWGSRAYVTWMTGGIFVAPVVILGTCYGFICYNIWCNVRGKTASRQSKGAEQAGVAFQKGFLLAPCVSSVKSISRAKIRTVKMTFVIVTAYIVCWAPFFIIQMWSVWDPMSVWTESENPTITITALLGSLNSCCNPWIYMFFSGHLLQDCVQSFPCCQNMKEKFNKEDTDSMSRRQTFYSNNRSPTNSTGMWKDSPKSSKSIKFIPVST

Usually Ki stands for the dissociation constant of the complex between target and ligand, obtained from inhibition or displacement. For orientation: EC50 means the concentration at which the effect is half-maximal. As usually defined, the IC50 is the concentration that inhibits the measured activity by half. For the compound `Cn1ncc2c1Nc1ccccc1N(C(=O)CCCCCCN1CCN(Cc3cc(O)cc(O)c3)CC1)C2`, the inhibition constant (Ki) on Oxytocin receptor [1] was above 10 µM; on Vasopressin V1a receptor [4], 0.13 µM. In addition, the EC50 on Oxytocin receptor [2] and at Vasopressin V1a receptor [5] was above 10 µM in each case. Also, the IC50 at Oxytocin receptor [3] and on Vasopressin V1a receptor [6] was above 10 µM each time.

Turning to `COc1cc(CN2CCN(C(=O)NCc3ccc(C(=O)N4Cc5cnn(C)c5Nc5ccccc54)cc3C)CC2)cc(OC)c1`, the Ki came to 0.801 µM at Oxytocin receptor [1] and 0.062 µM on Vasopressin V1a receptor [4]. Also, the EC50 on Oxytocin receptor [2] and at Vasopressin V1a receptor [5] was above 10 µM in each case. Moreover, the IC50 was 4.13 µM on Oxytocin receptor [3] and 1.11 µM at Vasopressin V1a receptor [6].

As to `COc1cc(CN2CCN(CCCCC(=O)N3Cc4cnn(C)c4Nc4ccccc43)CC2)cc(OC)c1`, the Ki at Oxytocin receptor [1] was above 10 µM; on Vasopressin V1a receptor [4], 0.409 µM. Besides, the EC50 on Oxytocin receptor [2] and on Vasopressin V1a receptor [5] was above 10 µM in each case. The half-maximal inhibitory concentration (IC50) on Oxytocin receptor [3] and at Vasopressin V1a receptor [6] was above 10 µM throughout.

Consider `Cn1ncc2c1Nc1ccccc1N(C(=O)CCCCN1CCN(Cc3cc(O)cc(O)c3)CC1)C2`, for which the Ki on Oxytocin receptor [1] was above 10 µM; at Vasopressin V1a receptor [4] it was 0.466 µM. The EC50 at Oxytocin receptor [2] and on Vasopressin V1a receptor [5] was above 10 µM in each case. In addition, the half-inhibitory concentration (IC50) on Oxytocin receptor [3] and on Vasopressin V1a receptor [6] was above 10 µM each time.

In the case of `COc1cc(CN2CCN(CCCCCCC(=O)N3Cc4cnn(C)c4Nc4ccccc43)CC2)cc(OC)c1`, the Ki on Oxytocin receptor [1] is above 10 µM; on Vasopressin V1a receptor [4], 0.195 µM. In addition, the EC50 on Oxytocin receptor [2] and on Vasopressin V1a receptor [5] was above 10 µM each time. Further, the IC50 on Oxytocin receptor [3] and on Vasopressin V1a receptor [6] was above 10 µM each time.

As to `COc1cc(CN2CCN(CCCCCC(=O)N3Cc4cnn(C)c4Nc4ccccc43)CC2)cc(OC)c1`, the values for the inhibitory constant (Ki) on Oxytocin receptor [1] and at Vasopressin V1a receptor [4] were 7.45 µM and 0.266 µM, respectively. Further, the EC50 at Oxytocin receptor [2] and at Vasopressin V1a receptor [5] was above 10 µM in each case. Besides, the IC50 was above 10 µM at Oxytocin receptor [3] and 8.2 µM at Vasopressin V1a receptor [6].

As for `Cn1ncc2c1Nc1ccccc1N(C(=O)CCCCCCCN1CCN(Cc3cc(O)cc(O)c3)CC1)C2`, the Ki on Oxytocin receptor [1] was 8.35 µM; at Vasopressin V1a receptor [4], 0.064 µM. The EC50 on Oxytocin receptor [2] and at Vasopressin V1a receptor [5] was above 10 µM throughout. Moreover, the IC50 at Oxytocin receptor [3] is above 10 µM; at Vasopressin V1a receptor [6], 4.67 µM.

In the case of `Cn1ncc2c1Nc1ccccc1N(C(=O)CCCCCN1CCN(Cc3cc(O)cc(O)c3)CC1)C2`, the Ki on Oxytocin receptor [1] is above 10 µM; on Vasopressin V1a receptor [4], 0.449 µM. Also, the EC50 on Oxytocin receptor [2] and on Vasopressin V1a receptor [5] was above 10 µM in each case. The IC50 at Oxytocin receptor [3] and on Vasopressin V1a receptor [6] was above 10 µM each time.

Regarding `COc1cc(CN2CCN(CCCCCCCC(=O)N3Cc4cnn(C)c4Nc4ccccc43)CC2)cc(OC)c1`, the inhibition constant Ki on Oxytocin receptor [1] is above 10 µM; at Vasopressin V1a receptor [4], 0.248 µM. Also, the EC50 on Oxytocin receptor [2] and on Vasopressin V1a receptor [5] was above 10 µM each time. In addition, the values for the IC50 on Oxytocin receptor [3] and on Vasopressin V1a receptor [6] were above 10 µM and 7.67 µM, respectively.
